Assay results published in ChEMBL document CHEMBL2380227, “Ginkgetin induces apoptosis via activation of caspase and inhibition of survival genes in PC-3 prostate cancer cells” (Bioorg Med Chem Lett, 2013).
Activity calls are given as the source filed them.

Columns and labels:
PC-3 [1] = experiment: Induction of apoptosis in human PC3 cells assessed as increase in caspase-3 cleavage at 30 uM after 24 hrs by Western blotting in presence of Z-DEVD-FMK; format: functional, cell-based
PC-3 [2] = experiment: Induction of apoptosis in human PC3 cells assessed as supression of survivin expression at 15 to 30 uM after 24 hrs by Western blotting; format: functional, cell-based
PC-3 [3] = experiment: Induction of apoptosis in human PC3 cells assessed as increase in PARP cleavage at 15 to 30 uM after 24 hrs by Western blotting; format: functional, cell-based
PC-3 [4] = experiment: Cell cycle arrest in human PC3 cells assessed as sub-G1 accumulation at 30 uM after 24 hrs by propidium iodide staining-based flow cytometry in presence of Z-DEVD-FMK; format: functional
PC-3 [5] = experiment: Induction of apoptosis in human PC3 cells assessed as supression of Bcl-XL expression at 15 to 30 uM after 24 hrs by Western blotting; format: functional, cell-based
PC-3 [6] = experiment: Induction of apoptosis in human PC3 cells assessed as supression of Cyclin-D1 expression at 15 to 30 uM after 24 hrs by Western blotting; format: functional, cell-based
PC-3 [7] = experiment: Induction of apoptosis in human PC3 cells assessed as apoptotic bodies at 15 to 30 uM after 24 hrs by inverted microscopy; format: functional, cell-based
PC-3 [8] = experiment: Induction of apoptosis in human PC3 cells assessed as increase in caspase-3 cleavage at 15 to 30 uM after 24 hrs by Western blotting; format: functional, cell-based
PC-3 [9] = experiment: Induction of apoptosis in human PC3 cells assessed as supression of Bcl-2 mRNA expression at 15 to 30 uM after 24 hrs by RT-PCR analysis; format: functional, cell-based
PC-3 [10] = experiment: Induction of apoptosis in human PC3 cells assessed as increase in caspase-3 cleavage at 15 to 30 uM after 24 hrs by immunofluorescence assay relative to control; format: functional, cell-based
PC-3 [11] = experiment: Induction of apoptosis in human PC3 cells assessed as supression of Bcl-XL mRNA expression at 15 to 30 uM after 24 hrs by RT-PCR analysis; format: functional, cell-based
PC-3 [12] = experiment: Induction of apoptosis in human PC3 cells assessed as supression of Cyclin-D1 mRNA expression at 15 to 30 uM after 24 hrs by RT-PCR analysis; format: functional, cell-based
PC-3 [13] = experiment: Induction of apoptosis in human PC3 cells assessed as supression of Bcl-2 expression at 15 to 30 uM after 24 hrs by Western blotting; format: functional, cell-based
PC-3 [14] = experiment: Cell cycle arrest in human PC3 cells assessed as sub-G1 accumulation after 24 hrs by propidium iodide staining-based flow cytometry; format: functional
PC-3 [15] = experiment: Induction of apoptosis in human PC3 cells assessed as supression of survivin mRNA expression at 15 to 30 uM after 24 hrs by RT-PCR analysis; format: functional, cell-based
PC-3 [16] = experiment: Cytotoxicity against human PC3 cells after 24 hrs by MTT assay; format: functional, cell-based
PC-3 [17] = experiment: Induction of apoptosis in human PC3 cells assessed as cell shrinkage at 15 to 30 uM after 24 hrs by inverted microscopy; format: functional, cell-based
PC-3 [18] = experiment: Induction of apoptosis in human PC3 cells assessed as increase in PARP cleavage at 30 uM after 24 hrs by Western blotting in presence of Z-DEVD-FMK; format: functional, cell-based

Measured: Activity

COc1cc(O)c2c(=O)cc(-c3ccc(OC)c(-c4c(O)cc(O)c5c(=O)cc(-c6ccc(O)cc6)oc45)c3)oc2c1
active: PC-3 [1] | PC-3 [2] | PC-3 [3] | PC-3 [4] | PC-3 [5] | PC-3 [6] | PC-3 [7] | PC-3 [8] | PC-3 [9] | PC-3 [10] | PC-3 [11] | PC-3 [12] | PC-3 [13] | PC-3 [14] Dose-dependent effect | PC-3 [15] | PC-3 [16] Dose-dependent effect | PC-3 [17] | PC-3 [18]
